Measured values as given in patent publication US6939946B2, “Ring modified cyclic peptide analogs” (Eli Lilly and Company, priority 1998, dated 2005).
Where two headings read alike, the source gives them in different places. Numbered stars: 1 amine (or outer) side, 2 acyl side, 3 side chain; on linkers, the order of the positions; unused ones are H or OH. Bridge positions count the residues as written; N and C are the ends. Square brackets hold non-standard residues; d marks the D form. Peptide text beside a SMILES is read from it. * marks the point of attachment. ξ: configuration not given here. pTerphenylCO(4''-OnC5H11) = CCCCCOc1ccc(-c2ccc(-c3ccc(C(=O)*)cc3)cc2)cc1; Orn(4R-OH,5R-OH) = O=C([C@H](C[C@@H](O)[C@@H](O)N[*:3])N[*:1])[*:2]; Pro(3S-OH,4S-Me) = C[C@H]1CN[C@H](C(=O)O)[C@H]1O; hTyr(3R-OH) = N[C@H](C(=O)O)[C@H](O)Cc1ccc(O)cc1; Hyp = O=C(O)[C@@H]1C[C@@H](O)CN1; Thr(3ξ) = CC(O)[C@H](N)C(=O)O; dDap = NC[C@@H](N)C(=O)O; Dap = NC[C@H](N)C(=O)O

Tests used:
[1] = tested on: Cryptococcus neoformans; conditions: in vitro
[2] = tested on: A. fumigatus; conditions: in vitro
[3] = tested on: C. albicans; conditions: in vitro
[4] = tested on: A. Fumigatus; conditions: murine model of organ recovery, cited from earlier work
[5] = tested on: Histoplasma capsulatum; conditions: in vitro
[6] = tested on: C. parapsilosis; conditions: in vitro
[7] = tested on: Pneumocystis carinii; conditions: cited from earlier work
[8] = the molecule shown is the open-chain precursor; other bond; 21-membered ring; SnCl2/NaHCO3; CH2Cl2; 2.0 mM
[9] = the molecule shown is the open-chain precursor, amide bond, H2/Pd-C (EtOH/AcOH), then Et3N, Et2O, 2 steps

Compound | Minimal Inhibitory Concentration MIC Cryptococcus neoformans [1] | Minimal Inhibitory Concentration MIC A. fumigatus [2] | Minimal Inhibitory Concentration MIC C. albicans [3] | Minimal Inhibitory Concentration MIC Histoplasma capsulatum [5] | Minimal Inhibitory Concentration MIC C. parapsilosis [6] | further results
CCCCCOc1ccc(-c2ccc(-c3ccc(C(=O)N[C@H]4C[C@@H](O)[C@@H](O)NC(=O)[C@@H]5[C@@H](O)[C@@H](C)CN5C(=O)[C@H](C(C)O)NC(=O)[C@H]([C@H](O)Cc5ccc(O)cc5)NC(=O)[C@@H]5C[C@@H](O)CN5C(=O)[C@H](C(C)O)NC4=O)cc3)cc2)cc1 (stereo partly drawn) [Compound C1, reference compound] ({pTerphenylCO(4''-OnC5H11)}-[Orn(4R-OH,5R-OH)][Thr(3ξ)][Hyp][hTyr(3R-OH)][Thr(3ξ)][Pro(3S-OH,4S-Me)]; lactam 1-C) | >20 µg/mL | 0.02 µg/mL | 0.01 µg/mL | 0.01 µg/mL | 0.156 µg/mL | number of A. Fumigatus recovered from the kidneys ([4]; administered intraperitoneally): significantly reduced; effectiveness compared with amphotericin B on a mg/kg basis ([4]; both administered intraperitoneally): as effective as amphotericin B; reduction of the number of cysts in the lungs ([7]; heavily infected, immunosuppressed rats, orally 5 mg/kg once daily for 4 days): more than 99%; reduction in all life cycle forms ([7]; prophylactic oral administration of 1 mg/kg twice daily for 4 weeks): > 90%
CCCCCOc1ccc(-c2ccc(-c3ccc(C(=O)NC[C@H]4NC(=O)CNC(=O)[C@@H]5[C@@H](O)[C@@H](C)CN5C(=O)[C@H](C(C)O)NC(=O)[C@H]([C@H](O)Cc5ccc(O)cc5)NC(=O)[C@@H]5C[C@@H](O)CN5C(=O)[C@H](C(C)O)NC4=O)cc3)cc2)cc1 (stereo partly drawn) [E7-14(a)] (cyclo(G[dDap](pTerphenylCO(4''-OnC5H11))[Thr(3ξ)][Hyp][hTyr(3R-OH)][Thr(3ξ)][Pro(3S-OH,4S-Me)])) | >20 µg/mL | >20 µg/mL | 0.312 µg/mL | 0.312 µg/mL | >20 µg/mL | –
CCCCCOc1ccc(-c2ccc(-c3ccc(C(=O)NC[C@@H]4NC(=O)CNC(=O)[C@@H]5[C@@H](O)[C@@H](C)CN5C(=O)[C@H](C(C)O)NC(=O)[C@H]([C@H](O)Cc5ccc(O)cc5)NC(=O)[C@@H]5C[C@@H](O)CN5C(=O)[C@H](C(C)O)NC4=O)cc3)cc2)cc1 (stereo partly drawn) [E7-14(b)] (cyclo([Dap](pTerphenylCO(4''-OnC5H11))[Thr(3ξ)][Hyp][hTyr(3R-OH)][Thr(3ξ)][Pro(3S-OH,4S-Me)]G)) | >20 µg/mL | >20 µg/mL | 0.156 µg/mL | 0.078 µg/mL | >20 µg/mL | –
Boc-Asp-semialdehyde(dimethyl acetal)-Thr(TBS)-Hyp(TBS)-hTyr(3-OTBS,4'-OTBS)-Thr(TBS)-Pro(3-OTBS,4-Me)-NHNH2? | – | – | – | – | – | ring closure, crude yield [8]: 100%
Boc-Cys(SO2; S-CH2CH2NH2)-Thr(TBS)-Hyp(TBS)-hTyr(3-OTBS,4'-OTBS)-Thr(TBS)-Pro(3-OTBS,4-Me)-N(Boc)2? | – | – | – | – | – | ring closure, isolated yield ([9]; 22-membered ring, 1.1 mM): 67%
Boc-Orn-Val-Hyp(TBS)-hTyr(3-OTBS,4'-OTBS)-Thr(TBS)-Pro(3-OTBS,4-Me)-N(Boc)2? | – | – | – | – | – | ring closure, isolated yield ([9]; 21-membered ring, 2.1 mM): 43%
